Data published in ChEMBL document CHEMBL1146968, “Novel skeleton terpenes from Celastrus hypoleucus with anti-tumor activities” (Bioorg Med Chem Lett, 2006).
≈ marks a conversion by molar mass, not a printed value.

Columns and labels:
Format in all cases: functional, cell-based
Bcap37 = assay: Antitumor activity against human Bcap37 cell line by MTT assay
RKO = assay: Antitumor activity against human RKO cell line by MTT assay
SMMC-7721 = assay: Antitumor activity against human SMMC7721 cell line by MTT assay
K562 = assay: Antitumor activity against human K562 cell line by MTT assay

IC50 (SMMC-7721) [µg/mL] | IC50 (K562) [µg/mL] | SMILES | IC50 (Bcap37) [µg/mL] | IC50 (RKO) [µg/mL]
22.7 (≈ 51.3 µM) | 11.2 (≈ 25.3 µM) | CC1(C)CC[C@]2(C)CC[C@]3(C)C(=CC[C@@H]4[C@@]5(C)CC[C@H](O)C(C)(C)[C@@H]5[C@@H](O)C[C@]43C)C2C1 (some centres not stated) | 14.6 (≈ 32.9 µM) | 12.2 (≈ 27.6 µM)
2.44 (≈ 7.3 µM) | 3.35 (≈ 10 µM) | CO[C@@]12[C@H](COC(N)=O)C3=C(C(=O)C(C)=C(N)C3=O)N1C[C@@H]1N[C@@H]12 [MITOMYCIN] | 2.33 (≈ 6.97 µM) | 1.75 (≈ 5.23 µM)

SMILES | IC50 (SMMC-7721) [µg/mL] | IC50 (K562) [µg/mL] | IC50 (Bcap37) [µg/mL] | IC50 (RKO) [µg/mL]
CC1=C(C)[C@@H]2CC(=O)c3cc(O)c(O)cc3[C@@]2(C)CC1 [CELAHYPODIOL] | 38 (≈ 140 µM) | 16.2 (≈ 59.5 µM) | 24.4 (≈ 89.7 µM) | 27.2 (≈ 99.7 µM)
